Experimental data from patent publication US9540391B2, “Isomannide derivatives as inhibitors of soluble epoxide hydrolase” (SANOFI, priority 2013, dated 2017).
pIC50: −log10 of the molar value.

biological target: T1, recombinant sEH (Homo sapiens, UniProt P34913); assay: biochemical screening assay for inhibition of soluble epoxide hydrolase (fluorometric, Phome substrate)
T1 construct: made in house; host or cells: Sf9 insect cells
T1 sequence (P34913 1-555): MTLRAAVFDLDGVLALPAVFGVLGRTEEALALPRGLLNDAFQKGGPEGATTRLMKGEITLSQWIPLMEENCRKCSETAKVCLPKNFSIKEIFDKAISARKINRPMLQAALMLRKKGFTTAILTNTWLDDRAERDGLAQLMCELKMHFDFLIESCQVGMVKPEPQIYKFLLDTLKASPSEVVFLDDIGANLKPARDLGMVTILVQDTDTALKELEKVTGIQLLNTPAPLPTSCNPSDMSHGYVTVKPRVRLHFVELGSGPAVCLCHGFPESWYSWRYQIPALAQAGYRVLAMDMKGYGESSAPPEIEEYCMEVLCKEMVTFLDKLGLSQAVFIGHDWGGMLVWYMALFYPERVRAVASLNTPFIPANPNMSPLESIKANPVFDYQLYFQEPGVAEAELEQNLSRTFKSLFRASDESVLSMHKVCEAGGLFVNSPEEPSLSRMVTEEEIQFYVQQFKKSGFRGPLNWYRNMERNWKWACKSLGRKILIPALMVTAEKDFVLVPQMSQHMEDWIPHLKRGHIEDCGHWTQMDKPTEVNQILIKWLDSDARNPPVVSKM
In short: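 Reading fluorescence before substrate addition and after completion corrected for autofluorescence. Reaction: 5 μM Phome, 2 nM recombinant human sEH (Sf9-expressed), compound 0.0001–10 μM, 25 mM Hepes with 0.01% albumin, 15 min pre-incubation then 60 min at 30 °C; IC50 derived from % inhibition.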

`CC1(C)CC(=O)c2cc(O[C@H]3CO[C@H]4[C@@H]3OC[C@@H]4NC(=O)NC3CCCCC3)ccc2O1` [Example 114, 1-Cyclohexyl-3-[(3S,3aR,6S,6aS)-6-(2,2-dimethyl-4-oxo-chroman-6-yloxy)-hexahydro-furo[3,2-b]furan-3-yl]-urea] and `O=C(NC1CCCCC1)N[C@H]1CO[C@H]2[C@@H]1OC[C@@H]2Oc1ccc2c(c1)C(=O)CC2` [Example 118, 1-Cyclohexyl-3-[(3S,3aR,6S,6aS)-6-(3-oxo-indan-5-yloxy)-hexahydro-furo[3,2-b]furan-3-yl]-urea] are within 0.2 log units of each other in pIC50: 8.40 for the first, 8.52 for the second.

Going from `O=C(Nc1ccc(F)cc1)N[C@H]1CO[C@H]2[C@@H]1OC[C@@H]2C#Cc1ccsc1` [Example 306, 1-(4-Fluoro-phenyl)-3-((3S,3aR,6S,6aR)-6-thiophen-3-ylethynyl-hexahydro-furo[3,2-b]furan-3-yl)-urea] to `O=C(Nc1ccc(OC(F)(F)F)cc1)N[C@H]1CO[C@H]2[C@@H]1OC[C@@H]2C#Cc1ccsc1` [Example 315, 1-((3S,3aR,6S,6aR)-6-Thiophen-3-ylethynyl-hexahydro-furo[3,2-b]furan-3-yl)-3-(4-trifluoromethoxy-phenyl)-urea], the pIC50 rises from 6.72 to 7.82 (1.10 log units). The second is the more potent here.

`Cc1ncccc1O[C@H]1CO[C@H]2[C@@H]1OC[C@@H]2NC(=O)NC1C(C)CCCC1C` (stereo partly drawn) [Example 269, 1-(2,6-Dimethyl-cyclohexyl)-3-[(3S,3aR,6S,6aS)-6-(2-methyl-pyridin-3-yloxy)-hexahydro-furo[3,2-b]furan-3-yl]-urea] and `Cc1ncccc1O[C@H]1CO[C@H]2[C@@H]1OC[C@@H]2NC(=O)NC1CCC(C)(C)CC1` [Example 268, 1-(4,4-Dimethyl-cyclohexyl)-3-[(3S,3aR,6S,6aS)-6-(2-methyl-pyridin-3-yloxy)-hexahydro-furo[3,2-b]furan-3-yl]-urea] are the same in pIC50: 8.70 for the first, 8.70 for the second.

Going from `O=C(Nc1ccccc1)NC1COC2C(C#Cc3ccsc3)COC12` [Example 303, 1-Phenyl-3-((3S,3aR,6S,-6aR)-6-thiophen-3-ylethynyl-hexahydro-furo[3,2-b]furan-3-yl)-urea] to `Cc1cccc(NC(=O)NC2COC3C(CCc4ccccc4)COC23)c1` [Example 357, 1-[(3S,3aR,6R)-6-((S)-Phenethyl)-hexahydro-furo[3,2-b]furan-3-yl]-3-m-tolyl-urea], the pIC50 rises from 6.62 to 7.08 (0.46 log units).

Going from `O=C(NC1CCCCC1)N[C@H]1CO[C@H]2[C@@H]1OC[C@@H]2OC(=O)N1CCOCC1` [Example 4, morpholine-4-carboxylic acid (3S,3aS,6S,6aR)-6-(3-cyclohexyl-ureido)-hexahydro-furo[3,2-b]furan-3-yl ester] to `O=C(NC1CCCCC1)N[C@H]1CO[C@H]2[C@@H]1OC[C@@H]2Oc1ccc(C(=O)N2CCOCC2)cc1` [Example 120, 1-Cyclohexyl-3-{(3S,3aR,6S,6aS)-6-[4-(morpholine-4-carbonyl)-phenoxy]-hexahydro-furo[3,2-b]furan-3-yl}-urea], the pIC50 rises from 7.80 to 8.15 (0.35 log units). The second is the more potent here.

First: Cc1ncccc1O[C@H]1CO[C@H]2[C@@H]1OC[C@@H]2NC(=O)NCc1cccc2c1OCCO2 [Example 200, 1-(2,3-Dihydro-benzo[1,4]dioxin-5-ylmethyl)-3-[(3S,3aR,6S,6aS)-6-(2-methyl-pyridin-3-yloxy)-hexahydro-furo[3,2-b]furan-3-yl]-urea]
Second: Cc1ncccc1O[C@H]1CO[C@H]2[C@@H]1OC[C@@H]2NC(=O)NCC1(C)CCCO1 (stereo partly drawn) [Example 209, 1-[(3S,3aR,6S,6aS)-6-(2-Methyl-pyridin-3-yloxy)-hexahydro-furo[3,2-b]furan-3-yl]-3-(2-methyl-tetrahydro-furan-2-ylmethyl)-urea]
The pIC50 of the first is 0.97 log units higher: 7.06 for the first, 6.09 for the second. The first is the more potent here.

Going from `CC(=O)c1cccc(O[C@H]2CO[C@H]3[C@@H]2OC[C@@H]3NC(=O)NC2CCCCC2)c1` [Example 106, 1-[(3S,3aR,6S,6aS)-6-(3-Acetyl-phenoxy)-hexahydro-furo[3,2-b]furan-3-yl]-3-cyclohexyl-urea] to `Cc1cc(O[C@H]2CO[C@H]3[C@@H]2OC[C@@H]3NC(=O)NC2CCCCC2)cc(C)n1` [Example 67, 1-Cyclohexyl-3-[(3S,3aR,6S,6aS)-6-(2,6-dimethyl-pyridin-4-yloxy)-hexa-hydro-furo[3,2-b]furan-3-yl]-urea], the pIC50 rises from 8.52 to 9.00 (0.48 log units). The second is the more potent here.

Compared with `Cc1ncccc1OC1COC2C(NC(=O)NCCc3ccccc3OC(F)(F)F)COC12` [Example 206, 1-[(3S,3aR,6S,6aS)-6-(2-Methyl-pyridin-3-yloxy)-hexahydro-furo[3,2-b]furan-3-yl]-3-[2-(2-trifluoro-methoxy-phenyl)-ethyl]-urea], `Cc1nc(CCNC(=O)N[C@H]2CO[C@H]3[C@@H]2OC[C@@H]3Oc2cccnc2C)cs1` [Example 218, 1-[(3S,3aR,6S,6aS)-6-(2-Methyl-pyridin-3-yloxy)-hexahydro-furo[3,2-b]furan-3-yl]-3-[2-(2-methyl-thiazol-4-yl)-ethyl]-urea] is 2.29 log units lower in pIC50: 8.70 for the first, 6.41 for the second.

Going from `Cc1ncccc1O[C@H]1CO[C@H]2[C@@H]1OC[C@@H]2NC(=O)NC1(c2cccc(F)c2)CCCC1` [Example 229, 1-[1-(3-Fluoro-phenyl)-cyclopentyl]-3-[(3S,3aR,6S,6aS)-6-(2-methyl-pyridin-3-yloxy)-hexahydro-furo[3,2-b]furan-3-yl]-urea] to `Cc1cnc(CNC(=O)N[C@H]2CO[C@H]3[C@@H]2OC[C@@H]3Oc2cccnc2C)cn1` [Example 190, 1-(5-Methyl-pyrazin-2-ylmethyl)-3-[(3S,3aR,6S,6aS)-6-(2-methyl-pyridin-3-yloxy)-hexahydro-furo[3,2-b]furan-3-yl]-urea], the pIC50 rises from 5.94 to 6.32 (0.38 log units). The second is the more potent here.

Going from `COc1cccc([C@@H](C)NC(=O)N[C@H]2CO[C@H]3[C@@H]2OC[C@@H]3Oc2ccc(F)cc2)c1` [Example 155, 1-[(3S,3aR,6S,6aS)-6-(4-Fluoro-phenoxy)-hexahydro-furo[3,2-b]furan-3-yl]-3-[(R)-1-(3-methoxy-phenyl)-ethyl]-urea] to `CC1CCC(NC(=O)N[C@H]2CO[C@H]3[C@@H]2OC[C@@H]3Oc2ccc(F)cc2)CC1` (stereo partly drawn) [Example 151, 1-[(3S,3aR,6S,6aS)-6-(4-Fluoro-phenoxy)-hexahydro-furo[3,2-b]furan-3-yl]-3-(4-methyl-cyclohexyl)-urea], the pIC50 rises from 7.42 to 8.10 (0.68 log units). The second is the more potent here.

First: O=C(NC1CCCCC1)N[C@H]1CO[C@H]2[C@@H]1OC[C@@H]2Oc1ccccc1-c1nnn[nH]1 [Example 26, 1-Cyclohexyl-3-{(3S,3aR,6S,6aS)-6-[2-(1H-tetrazol-5-yl)-phenoxy]-hexahydro-furo[3,2-b]furan-3-yl}-urea]
Second: Cn1ccnc1-c1ccc(O[C@H]2CO[C@H]3[C@@H]2OC[C@@H]3NC(=O)NC2CCCCC2)cc1 [Example 32, 1-Cyclohexyl-3-{(3S,3aR,6S,6aS)-6-[4-(1-methyl-1H-imidazol-2-yl)-phenoxy]-hexahydro-furo[3,2-b]furan-3-yl}-urea]
The pIC50 of the first is 2.18 log units lower: 6.34 for the first, 8.52 for the second.

Compared with `Cc1ncccc1O[C@H]1CO[C@H]2[C@@H]1OC[C@@H]2NC(=O)NCCC1CCCCO1` (stereo partly drawn) [Example 235, 1-[(3S,3aR,6S,6aS)-6-(2-Methyl-pyridin-3-yloxy)-hexahydro-furo[3,2-b]furan-3-yl]-3-[2-(tetrahydro-pyran-2-yl)-ethyl]-urea], `Cc1ncccc1O[C@H]1CO[C@H]2[C@@H]1OC[C@@H]2NC(=O)NCC1CCC(=O)N1` (stereo partly drawn) [Example 201, 1-[(3S,3aR,6S,6aS)-6-(2-Methyl-pyridin-3-yloxy)-hexahydro-furo[3,2-b]furan-3-yl]-3-(5-oxo-pyrrolidin-2-ylmethyl)-urea] is 1.83 log units lower in pIC50: 7.07 for the first, 5.24 for the second.

Compared with `Cc1ncccc1OC1COC2C(NC(=O)NC3CCCN(C(=O)C(C)C)C3)COC12` [Example 84, 1-(1-Isobutyryl-piperidin-3-yl)-3-[(3S,-3aR,6S,6aS)-6-(2-methyl-pyridin-3-yloxy)-hexahydro-furo[3,2-b]furan-3-yl]-urea], `Cc1ncccc1O[C@H]1CO[C@H]2[C@@H]1OC[C@@H]2NC(=O)NC1CCSCC1` [Example 228, 1-[(3S,3aR,6S,6aS)-6-(2-Methyl-pyridin-3-yloxy)-hexahydro-furo[3,2-b]furan-3-yl]-3-(tetrahydro-thiopyran-4-yl)-urea] is 0.82 log units higher in pIC50: 7.23 for the first, 8.05 for the second. The second is the more potent here.

Compared with `CCN(CC)c1ccc(O[C@H]2CO[C@H]3[C@@H]2OC[C@@H]3NC(=O)NC2CCCCC2)cn1` [Example 72, 1-Cyclohexyl-3-[(3S,3aR,6S,6aS)-6-(6-diethylamino-pyridin-3-yloxy)-hexa-hydro-furo[3,2-b]furan-3-yl]-urea], `O=C(NC1CCCCC1)N[C@H]1CO[C@H]2[C@@H]1OC[C@@H]2C#Cc1ccc2c(c1)OCO2` [Example 281, 1-((3S,3aR,6S,6aR)-6-benzo[1,3]dioxol-5-ylethynyl-hexahydro-furo[3,2-b]furan-3-yl)-3-cyclohexyl-urea] is lower in pIC50: > 9.00 for the first, 7.12 for the second. The first is the more potent here.

Compared with `Cc1cc(C)cc(NC(=O)NC2COC3C(C=Cc4ccsc4)COC23)c1` [Example 336, 1-(3,5-Dimethyl-phenyl)-3-[(3S,3aR,6S,-6aR)-6-((Z)-2-thiophen-3-yl-vinyl)-hexahydro-furo[3,2-b]furan-3-yl]-urea], `O=C(Nc1ccc(F)cc1)NC1COC2C(C=Cc3ccccc3)COC12` [Example 328, 1-(4-Fluoro-phenyl)-3-[(3S,3aR,6R)-6-((S)-(Z)-styryl)-hexahydro-furo[3,2-b]furan-3-yl]-urea] is 0.32 log units lower in pIC50: 7.33 for the first, 7.01 for the second. The first is the more potent here.
